Laboratory results as given in publication PMC9822270, “Modulation Effect on Tubulin Polymerization, Cytotoxicity and Antioxidant Activity of 1H-Benzimidazole-2-Yl Hydrazones” (Molecules, 2022).
Values joined by “and” are separate entries in the source; they are usually repeats but may differ in a detail not shown here. Identical values can stand only once. “Also recorded” adds a separate entry of the source. Like-named read-outs stand apart in the source and are kept apart here.

What was measured:
porcine brain tubulin = molecular target: T1, porcine brain tubulin (Sus scrofa, UniProt P02550+P02554); experiment: In vitro tubulin polymerization assay (turbidity at 340 nm); format: biochemical; conditions: 10 µM compound; for Initial Rate of the Exponential Phase, Signal Response / Lag Time: 37 °C, 90 min, turbidity 340 nm
T1 construct: The standard reaction mixture contains 95 μL of 4 mg.mL^−1 porcine brain tubulin; purchased Cytoskeleton, USA BK004P; host or cells: porcine brain (tissue-purified)
T1 sequence (P02550 whole entry): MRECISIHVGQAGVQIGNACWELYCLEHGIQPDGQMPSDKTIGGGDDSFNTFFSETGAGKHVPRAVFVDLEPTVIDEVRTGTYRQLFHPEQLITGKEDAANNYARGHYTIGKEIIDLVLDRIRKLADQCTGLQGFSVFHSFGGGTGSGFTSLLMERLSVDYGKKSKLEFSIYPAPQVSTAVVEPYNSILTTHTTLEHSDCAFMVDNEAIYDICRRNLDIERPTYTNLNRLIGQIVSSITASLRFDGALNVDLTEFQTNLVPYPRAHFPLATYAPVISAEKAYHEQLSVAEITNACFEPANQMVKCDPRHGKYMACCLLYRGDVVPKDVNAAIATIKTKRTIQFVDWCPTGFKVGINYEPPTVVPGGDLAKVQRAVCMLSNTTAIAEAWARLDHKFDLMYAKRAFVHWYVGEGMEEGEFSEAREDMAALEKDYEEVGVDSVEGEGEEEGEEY
T1 sequence (P02554 whole entry): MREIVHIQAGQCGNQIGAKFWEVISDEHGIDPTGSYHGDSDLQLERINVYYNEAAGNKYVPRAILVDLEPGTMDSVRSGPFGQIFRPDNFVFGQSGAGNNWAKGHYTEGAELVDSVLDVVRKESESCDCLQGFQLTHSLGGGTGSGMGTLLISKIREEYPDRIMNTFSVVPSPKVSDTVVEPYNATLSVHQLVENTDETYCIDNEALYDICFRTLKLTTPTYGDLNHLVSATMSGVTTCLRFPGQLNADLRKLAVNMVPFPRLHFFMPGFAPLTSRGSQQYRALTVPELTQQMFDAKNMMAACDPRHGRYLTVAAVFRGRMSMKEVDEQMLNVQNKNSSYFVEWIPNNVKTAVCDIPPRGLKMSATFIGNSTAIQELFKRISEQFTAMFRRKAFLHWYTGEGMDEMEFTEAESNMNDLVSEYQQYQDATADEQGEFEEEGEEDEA
Method: The ability of the compounds to modulate the polymerization of tubulin was evaluated in vitro on purified porcine tubulin by spectrophotometric monitoring at 340 nm and compared to those of nocodazole and paclitaxel as reference compounds. Nocodazole which inhibits the assembly of tubulin was used as a positive control, and paclitaxel which is a stabilizing agent of tubulin polymerization was used as a negative control. Tubulin polymerization was determined with 10 µM of the reference drugs and compounds 1a–l for 90 min.
Figure 3 Porcine brain tubulin (final […]) in presence of PB-GTP buffer, 10 µM paclitaxel, 10 µM nocodazole and 10 µM of the assayed compounds. Reaction was conducted in thermostated spectrophotometric chamber at 37 °C for 90 min. Turbidity was measured at 340 nm every 30 s.
The effect of the studied compounds on the polymerization of purified porcine tubulin was monitored using a commercial assay kit (cat. number BK004P), purchased from Cytoskeleton, USA. Stock solutions of porcine brain tubulin solutions (4 mg.mL^−1) were prepared immediately prior to use in general tubulin buffer (80 mM piperazine-N,N′-bis(2-ethanesulfonic acid, PIPES) pH 6.9, 2 mM MgCl2 and 0.5 mM (ethylene glycol-bis(β-aminoethyl ether)-N,N,N′,N′-tetraacetic acid, EGTA) containing 1 mM guanosine triphosphate (GTP) (G-PEM buffer). Stock solutions of Paclitaxel (100 µM), Noconazole (100 µM) or tested samples (100 µM) in G-PEM buffer containing 5% DMSO were prepared.
The standard reaction mixture contains 95 μL of 4 mg.mL^−1 porcine brain tubulin and 5 μL of standards, test samples or G-PEM buffer only (control). Then, the microplate with loaded reaction mixtures was incubated for 90 min. at 37 °C in a thermostated spectrophotometer chamber. The turbidity of the mixtures was measured at 340 nm every 30 s. The experiment was performed on SpectroStar Nano (BMG Labtech, Aylesbury, UK) equipped with software for kinetic measurements.

[1] = test system: MCF-7 (ER-positive breast adenocarcinoma); experiment: MTT cytotoxicity assay, MCF-7; format: cell-based, human; conditions: for IC50: Homo sapiens, read-out: IC50 MCF-7
From the text: (§1) A standard colorimetric MTT assay was used to evaluate the anticancer activity of the newly synthesized 1H-benzimidazol-2-yl hydrazone derivatives against human malignant cell lines of different histological origin, namely MCF-7 (ER-positive breast adenocarcinoma) and AR-230 (BCR-ABL positive chronic myeloid leukemia), using podophyllotoxin as a reference drug. For each compound, the half-inhibitory concentrations (IC50) were estimated based on the derived “dose–response” relationships following 72h exposure time. In addition, their cytotoxicity was measured against normal fibroblast cells 3T3 (mouse embryo fibroblasts) and CCL-1 (murine fibroblasts) and respective cancer selectivity indices (CSI) were calculated (Table 2).
(§2) The cell lines MCF-7, AR-231 and CCL-1 were obtained from the German Collection of Microorganisms and Cell Cultures. Cells were kept in a controlled environment—RPMI-1640 medium supplemented with 10% fetal bovine serum (FBS) and 2mM L-glutamine, at 37 °C in an incubator with 5% CO2 humidified atmosphere.
(§3) MTT-based colorimetric assay was used for evaluating the cell viability. The method is based on the reduction of the yellow tetrazolium compound MTT to water-insoluble, violet formazan crystals. MCF-7, AR-231, and CCL-1 cells were seeded in 96-well, flatbottomed microplates (100 µL/well) at a density of 3 × 10^5 cells per mL and allowed to grow for 24 h prior the exposure to the studied compounds. Cells were exposed to the tested agents for 72 h. After the exposure period MTT solution (10 mg.mL^−1) aliquots (100 µL/well) were added to each well. The plates were further incubated for 4 h at 37 °C and the MTT-formazan crystals formed were dissolved through addition of […] of 5% HCOOH in 2-propanol. The absorption was measured at 580 nm using a microplate reader (Labexim LMR-1).

[2] = test system: AR-230 (BCR-ABL positive chronic myeloid leukemia); experiment: MTT cytotoxicity assay, AR-230; format: cell-based, human; conditions: for IC50: Homo sapiens, read-out: IC50 AR-230
From the text: as §1, §2, §3

[3] = test system: 3T3 (mouse embryo fibroblasts); experiment: Cytotoxicity against normal 3T3 cells; format: cell-based; conditions: normal mouse embryo fibroblast cell line; ± SD
From the text: as §1
Evaluation of the cytotoxic activity of some of the compounds was performed on 3T3 (mouse embryo fibroblasts) cell line. The cells were cultivated in Dulbecco′s Modified Eagle′s Medium (DMEM), containing 10% FBS, with supplements L-glutamine, sodium pyruvate, antibiotic and non-essential amino acids, and allowed to adhere overnight at 37 °C in an incubator with 5% CO2 humidified atmosphere. At the end of the incubation, the cells were treated with different concentrations of the compounds in a final volume of 100 μL/well in triplicate wells for each treatment for 24 h at 37 °C in a CO2 incubator. All studies were repeated at least twice. Control cells were grown in DMEM containing 10% FBS and allowed to stabilize overnight at 37 °C in a CO2 incubator and left without treatment.

[4] = Hydroxyl radical averting capacity (HORAC); conditions: gallic acid equivalents; sample final concentration 2.5 μM; Co(II)/H2O2, fluorescein; mean
Method: HORAC values of various phenolic compounds are related to their metal chelating properties and molecules that can chelate metals show significant HORAC values. According to the HORAC assays, the antioxidant capacity ranged between 0.50 and 3.03 GAE. […] To our knowledge, the current study is the first one to report ORAC and HORAC activities of 1H-benzimidazole-2-yl hydrazones.
HORAC was performed according to Ou et al. and fluorescein was used as the fluorescent probe. Hydrogen peroxide solution of 0.55 M was prepared in distilled water. 4.6 mM Co(II) was prepared as follows: 15.7 mg of CoF2.4H2O and 20 mg of picolinic acid were dissolved in 20 mL of distilled water. Fluorescein—170 µL (60 nM, final concentration) and 10 µL of sample were incubated at 37 °C for 10 min directly in the FLUOstar plate reader. […] The initial fluorescence was measured after which the readings were taken every minute after shaking. […] The AUC were calculated as they were for the ORAC assay. One HORAC unit was assigned to the net protection area provided by 1 µM gallic acid (final concentration −0.05 μM) and the activity of the sample was expressed as Gallic Acid Equivalents (GAE).
ORAC and HORAC analyses were carried out on a FLUOstar Galaxy plate reader (BMG Labtechnology, Offenburg, Germany) with excitation wavelength = 485 nm and emission wavelength = 520 nm.

[5] = test system: CCL-1 (murine fibroblasts); experiment: MTT cytotoxicity against normal CCL-1 cells; format: cell-based; conditions: Mus musculus, 72 h, read-out: IC50 CCL-1
From the text: as §1, §2, §3

[6] = normal murine fibroblast cell line, MTT, ± SD

Compound | Initial Rate of the Exponential Phase, Signal Response (porcine brain tubulin) [a.u.s^−1 × 10^−6] | Lag Time (porcine brain tubulin) | IC50 ([1]; MCF7, MTT, 72 h exposure, ± SD) [µM] | CSI MCF-7 (cancer selectivity index) ([1]; IC50(3T3)/IC50(MCF-7)) | IC50 ([2]; MTT, 72 h exposure, ± SD) [µM] | CSI AR230 (cancer selectivity index) ([2]; IC50(3T3)/IC50(AR-230)) | IC50 [3] [µM] | HORAC [4] [GAE] | CSI AR230 (cancer selectivity index) ([2]; IC50(CCL-1)/IC50(AR-230)) | IC50 [5, 6] [µM] | lag time of tubulin polymerization (porcine brain tubulin) | CSI MCF-7 (cancer selectivity index) ([1]; IC50(CCL-1)/IC50(MCF-7)) | IC50 ([1]; MCF7, 72 h) [µM] | IC50 ([2]; 72 h) [µM] | IC50 ([5]; Fibroblast) [µM]
Oc1ccccc1/C=N/Nc1nc2ccccc2[nH]1 [Compound 1a] | 8.77 | 1390 s | 18.7 ± 1.1 | ≈11 | 21.2 ± 2.3 | ≈9.6 | 204 ± 5.1 | – | – | – | – | – | – | – | –
Oc1cccc(/C=N/Nc2nc3ccccc3[nH]2)c1O [Compound 1b] | 13.4 | 1400 s and 1461 s | 64.5 ± 6.2 | ≈1 | 3.3 ± 0.3 | ≈18.4 | 61.1 ± 1.8 | – | – | – | – | – | – | – | –
Oc1ccc(/C=N/Nc2nc3ccccc3[nH]2)c(O)c1 [Compound 1c] | 4.9 | 1190 s | – | – | – | – | – | 2.69 | – | – | – | – | – | – | –
Oc1ccc(/C=N/Nc2nc3ccccc3[nH]2)cc1O [Compound 1d] | 13.3 | 1400 s and 1407 s | – | – | 61.8 ± 5.7 | – | – | – | ≈1.8 | 113 ± 9.1 | – | – | – | – | –
Oc1ccc(/C=N/Nc2nc3ccccc3[nH]2)c(O)c1O [Compound 1e] | – | – | – | – | – | – | – | 2.79 | – | – | – | – | – | – | –
COc1ccc(/C=N/Nc2nc3ccccc3[nH]2)cc1 [Compound 1f] | 17.1 | 807 s | 11.2 ± 1.3 | ≈31.6 | 19.4 ± 2.2 | ≈18.2 | 355 ± 5.3 | – | – | – | – | – | – | – | –
COc1cccc(OC)c1/C=N/Nc1nc2ccccc2[nH]1 [Compound 1g] | 10.7 | 1000 s | 7.9 ± 2.1 | ≈33 | 11.5 ± 1 | ≈22.6 | 261 ± 4.7 | – | – | – | – | – | – | – | –
COc1cc(/C=N/Nc2nc3ccccc3[nH]2)cc(OC)c1 [Compound 1h] | 23.1 | 1090 s | 4.6 ± 0.7 | ≈72.8 | 5.9 ± 0.9 | ≈56.7 | 335 ± 7 | – | – | – | – | – | – | – | –
COc1cc(/C=N/Nc2nc3ccccc3[nH]2)cc(OC)c1OC [Compound 1i] | 20.6 | 988 s | 1.2 ± 0.2 | ≈59.1 | 1.7 ± 0.3 | ≈41.7 | 71 ± 2.4 | – | – | – | – | – | – | – | –
COc1cccc(/C=N/Nc2nc3ccccc3[nH]2)c1O [Compound 1j] | 16.9 | 1200 s | 6.4 ± 1.2 | – | 1.1 ± 0.2 | – | – | – | ≈ 363; also recorded: ≈363.6 | > 400 | more than 20 min | > 50 | – | – | –
COc1ccc(/C=N/Nc2nc3ccccc3[nH]2)c(O)c1 [Compound 1k] | 9.7 | 1295 s | 1.5 ± 0.3 | – | 0.9 ± 0.1 | – | – | – | ≈113 | 102 ± 7.3 | more than 20 min | ≈67.8 | – | – | –
COc1ccc(/C=N/Nc2nc3ccccc3[nH]2)cc1O [Compound 1l] | 16 | no lag phase | 27.6 ± 3.5 | ≈4.8 | 16.8 ± 3.4 | ≈8 | 134.7 ± 1.3 | – | – | – | – | – | – | – | –
COc1cc([C@@H]2c3cc4c(cc3[C@H](O)[C@H]3COC(=O)[C@H]23)OCO4)cc(OC)c1OC [Podophyllotoxin, reference compound] | – | – | – | – | – | – | – | – | ≈5.7 | – | – | ≈9 | 0.3 ± 0.06 | 0.47 ± 0.09 | 2.7
COC(=O)Nc1nc2ccc(C(=O)c3cccs3)cc2[nH]1 [nocodazole, reference compound] | 52 | 935 s | – | – | – | – | – | – | – | – | – | – | – | – | –
CC(=O)O[C@H]1C(=O)[C@@]2(C)[C@H]([C@H](OC(=O)c3ccccc3)[C@]3(O)C[C@H](OC(=O)[C@H](O)[C@@H](NC(=O)c4ccccc4)c4ccccc4)C(C)=C1C3(C)C)[C@]1(OC(C)=O)CO[C@@H]1C[C@@H]2O [paclitaxel, reference compound] | 167 | 151 s | – | – | – | – | – | – | – | – | – | – | – | – | –
